Test results reported in ChEMBL document CHEMBL1132005, “Structure-activity relationship in two series of aminoalkyl substituted coumarin inhibitors of gyrase B” (1999).
Converted amounts (≈) assume the structure as drawn.

Experiments:
Enterococcus faecium = test: In vitro antibacterial activity against Enterococcus faecium 02D31P2 VanTeiEry-R; assay type: functional
[1] = molecular target: DNA gyrase (Escherichia coli) (UniProt P0AES6+P0AES4); test: In vitro inhibition of supercoiling activity of Escherichia coli DNA gyrase as the ratio of IC50 of Novobiocin and IC50 of compound; assay type: protein-complex assay
[2] = tested on: Staphylococcus epidermidis; test: In vitro antibacterial activity against Staphylococcus epidermidis 012GO39 OxaTei-R; assay type: functional
Staphylococcus aureus [3] = test: In vitro antibacterial activity against Staphylococcus aureus 011GO76 OfloOxaEry-R; assay type: functional
Staphylococcus aureus [4] = test: In vitro antibacterial activity against Staphylococcus aureus 011HT1 Nov-R; assay type: functional
Staphylococcus aureus [5] = test: In vitro antibacterial activity against Staphylococcus aureus 011HT3; assay type: functional
Streptococcus pyogenes = test: In vitro antibacterial activity against Streptococcus pyogenes O2A1UC1

Structure (SMILES) | MIC (Enterococcus faecium) | Ratio [1] | MIC [2] | MIC (Staphylococcus aureus [3]) | MIC (Staphylococcus aureus [4]) | MIC (Staphylococcus aureus [5]) | MIC (Streptococcus pyogenes)
CO[C@@H]1[C@@H](OC(=O)c2ccc(C)[nH]2)[C@@H](O)[C@H](Oc2ccc3c(OCCSc4ncc[nH]4)cc(=O)oc3c2C)OC1(C)C | 5 µg/mL (≈ 8.34 µM) | 0.33 | < 0.04 µg/mL | 5 µg/mL (≈ 8.34 µM) | 2.5 µg/mL (≈ 4.17 µM) | 0.08 µg/mL (≈ 0.133 µM) | 0.6 µg/mL (≈ 1 µM)
CO[C@@H]1[C@@H](OC(=O)c2ccc(C)[nH]2)[C@@H](O)[C@H](Oc2ccc3c(CSc4nc[nH]n4)cc(=O)oc3c2C)OC1(C)C | 2.5 µg/mL (≈ 4.38 µM) | 0.4 | 0.3 µg/mL (≈ 0.526 µM) | 0.6 µg/mL (≈ 1.05 µM) | 10 µg/mL (≈ 17.5 µM) | 0.3 µg/mL (≈ 0.526 µM) | 0.6 µg/mL (≈ 1.05 µM)
CO[C@@H]1[C@@H](OC(=O)c2ccc(C)[nH]2)[C@@H](O)[C@H](Oc2ccc3c(OCCn4ccnc4)cc(=O)oc3c2C)OC1(C)C | 10 µg/mL (≈ 17.6 µM) | 0.22 | 0.3 µg/mL (≈ 0.529 µM) | 1.2 µg/mL (≈ 2.11 µM) | > 20 µg/mL | 0.6 µg/mL (≈ 1.06 µM) | 1.2 µg/mL (≈ 2.11 µM)
CO[C@@H]1[C@@H](OC(=O)c2ccc(C)[nH]2)[C@@H](O)[C@H](Oc2ccc3c(CN4CCNC(c5ccccc5)C4)cc(=O)oc3c2C)OC1(C)C (some centres undefined) | 10 µg/mL (≈ 15.8 µM) | 0.28 | 1.2 µg/mL (≈ 1.9 µM) | 5 µg/mL (≈ 7.91 µM) | 10 µg/mL (≈ 15.8 µM) | 1.2 µg/mL (≈ 1.9 µM) | 2.5 µg/mL (≈ 3.96 µM)
CO[C@@H]1[C@@H](OC(=O)c2ccc(C)[nH]2)[C@@H](O)[C@H](Oc2ccc3c(CN4CCNC(c5ccco5)C4)cc(=O)oc3c2C)OC1(C)C (some centres undefined) | 10 µg/mL (≈ 16.1 µM) | 0.33 | 0.6 µg/mL (≈ 0.965 µM) | 10 µg/mL (≈ 16.1 µM) | 10 µg/mL (≈ 16.1 µM) | 0.6 µg/mL (≈ 0.965 µM) | 1.2 µg/mL (≈ 1.93 µM)
CO[C@@H]1[C@@H](OC(=O)c2ccc(C)[nH]2)[C@@H](O)[C@H](Oc2ccc3c(OCCn4cnc(-c5cccnc5)c4)cc(=O)oc3c2C)OC1(C)C | > 40 µg/mL | 0.63 | 0.08 µg/mL (≈ 0.124 µM) | > 40 µg/mL | > 40 µg/mL | 0.6 µg/mL (≈ 0.931 µM) | 1.2 µg/mL (≈ 1.86 µM)
CO[C@@H]1[C@@H](OC(N)=O)[C@@H](O)[C@H](Oc2ccc3c(O)c(NC(=O)c4ccc(O)c(CC=C(C)C)c4)c(=O)oc3c2C)OC1(C)C [NOVOBIOCIN] | 0.3 µg/mL (≈ 0.49 µM) | – | 0.08 µg/mL (≈ 0.131 µM) | < 0.04 µg/mL | 20 µg/mL (≈ 32.6 µM) | < 0.04 µg/mL | 0.15 µg/mL (≈ 0.245 µM)

The remaining lines, values ahead:

MIC (Enterococcus faecium) | Ratio [1] | MIC [2] | MIC (Staphylococcus aureus [3]) | MIC (Staphylococcus aureus [4]) | MIC (Staphylococcus aureus [5]) | MIC (Streptococcus pyogenes) | Structure (SMILES)
> 40 µg/mL | 2.3 | 5 µg/mL (≈ 9 µM) | 20 µg/mL (≈ 36 µM) | > 40 µg/mL | 10 µg/mL (≈ 18 µM) | 20 µg/mL (≈ 36 µM) | CO[C@@H]1[C@@H](OC(=O)c2ccc(C)[nH]2)[C@@H](O)[C@H](Oc2ccc3c(CN4CCNCC4)cc(=O)oc3c2C)OC1(C)C
> 40 µg/mL | 0.17 | 2.5 µg/mL (≈ 4.03 µM) | 2.5 µg/mL (≈ 4.03 µM) | > 40 µg/mL | 1.2 µg/mL (≈ 1.93 µM) | 5 µg/mL (≈ 8.05 µM) | CO[C@@H]1[C@@H](OC(=O)c2ccc(C)[nH]2)[C@@H](O)[C@H](Oc2ccc3c(OCCN4CCOCC4)c(Cl)c(=O)oc3c2C)OC1(C)C
> 40 µg/mL | 0.25 | 0.6 µg/mL (≈ 0.973 µM) | > 40 µg/mL | 40 µg/mL (≈ 64.9 µM) | 1.2 µg/mL (≈ 1.95 µM) | 10 µg/mL (≈ 16.2 µM) | CO[C@@H]1[C@@H](OC(=O)c2ccc(C)[nH]2)[C@@H](O)[C@H](Oc2ccc3c(OCCN4CCOC(CO)C4)cc(=O)oc3c2C)OC1(C)C (some centres undefined)
> 40 µg/mL | 0.33 | 5 µg/mL (≈ 7.88 µM) | 10 µg/mL (≈ 15.8 µM) | > 40 µg/mL | 5 µg/mL (≈ 7.88 µM) | 10 µg/mL (≈ 15.8 µM) | CO[C@@H]1[C@@H](OC(=O)c2ccc(C)[nH]2)[C@@H](O)[C@H](Oc2ccc3c(OCCN4CCN(C)CC4)c(Cl)c(=O)oc3c2C)OC1(C)C
> 40 µg/mL | 0.57 | 2.5 µg/mL (≈ 4.59 µM) | 5 µg/mL (≈ 9.18 µM) | 40 µg/mL (≈ 73.4 µM) | 2.5 µg/mL (≈ 4.59 µM) | 10 µg/mL (≈ 18.4 µM) | CO[C@@H]1[C@@H](OC(=O)c2ccc(C)[nH]2)[C@@H](O)[C@H](Oc2ccc3c(OCCN(C)C)cc(=O)oc3c2C)OC1(C)C
40 µg/mL (≈ 66.7 µM) | 0.5 | 1.2 µg/mL (≈ 2 µM) | 2.5 µg/mL (≈ 4.17 µM) | 20 µg/mL (≈ 33.4 µM) | 1.2 µg/mL (≈ 2 µM) | 10 µg/mL (≈ 16.7 µM) | CO[C@@H]1[C@@H](OC(=O)c2ccc(C)[nH]2)[C@@H](O)[C@H](Oc2ccc3c(OCCN4CCN(C)CC4)cc(=O)oc3c2C)OC1(C)C
20 µg/mL (≈ 35 µM) | 0.3 | 1.2 µg/mL (≈ 2.1 µM) | 1.2 µg/mL (≈ 2.1 µM) | 10 µg/mL (≈ 17.5 µM) | 0.6 µg/mL (≈ 1.05 µM) | 2.5 µg/mL (≈ 4.38 µM) | CO[C@@H]1[C@@H](OC(=O)c2ccc(C)[nH]2)[C@@H](O)[C@H](Oc2ccc3c(CN4CCC[C@H]4CO)cc(=O)oc3c2C)OC1(C)C
20 µg/mL (≈ 34.1 µM) | 0.22 | 0.15 µg/mL (≈ 0.256 µM) | 0.6 µg/mL (≈ 1.02 µM) | 10 µg/mL (≈ 17 µM) | 0.3 µg/mL (≈ 0.511 µM) | 2.5 µg/mL (≈ 4.26 µM) | CO[C@@H]1[C@@H](OC(=O)c2ccc(C)[nH]2)[C@@H](O)[C@H](Oc2ccc3c(OCCN4CCOCC4)cc(=O)oc3c2C)OC1(C)C
